Experimental data: patent US11759461B2, “Small molecule inhibitors of cancer stem cells and mesenchymal cancer types” (The Scripps Research Institute, priority 2017, dated 2023)

Test system: FOXC2-expressing HMLER cells
Test: Cell Titer Glo viability of FOXC2-HMLER cells (high throughput screen and 10-point response)
Format: cell-based
Details: Homo sapiens; scored relative to parent compound 3; 72 hours; read-out: Activity Score, inhibition of FOXC2-expressing HMLER cells by Formula III compounds
Procedure, shortened: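 Viability after 72 h compound exposure was measured as Cell Titer Glo luminescence. FOXC2-HMLER and parental HMLER cells, 1,000 per well in MEGM medium, were dosed 1 h after plating; screening concentration was 2 μM.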

`CCN(Cc1ccccc1)C(=O)c1ccc(-n2nnc3cccnc32)cc1` [Compound 3AO] and `CCN(Cc1ccccc1)C(=O)c1ccc(C)c(-n2nnc3cccnc32)c1` [Compound 3BG] cannot be ordered by IC50: over 20 µM for the first, over 20 µM for the second.

Compared with `COc1ccc(N2CCN(C(=O)c3ccc(-n4nnc5cccnc54)cc3)CC2)cc1` [Compound 3AP], `O=C(c1ccc(-n2nnc3cccnc32)cc1)N1CCN(c2ccc(F)cc2)CC1` [Compound 3C] is lower in IC50: over 20 µM for the first, under 1 µM for the second.

First: Cc1cc(C(=O)N2CCC(C)CC2)ccc1-n1nnc2cccnc21 [Compound 3AQ]
Second: Cc1cc(C(=O)N2CCC(Cc3ccccc3)CC2)ccc1-n1nnc2cccnc21 [Compound 3M]
The IC50 of the first is higher: over 20 µM for the first, 1 to 20 µM for the second.

`Cc1ccc(NC(=O)c2ccc(-n3nnc4cccnc43)c(C)c2)cc1C` [Compound 3AR] and `Cc1ccc(NC(=O)c2ccc(-n3nnc4cccnc43)c(C)c2)cc1` [Compound 3AT] cannot be ordered by IC50: over 20 µM for the first, over 20 µM for the second.

`COc1ccc(N2CCN(C(=O)c3ccc(-n4nnc5cccnc54)c(C)c3)CC2)cc1` [Compound 3AS] and `COc1ccc(N2CCN(C(=O)c3ccc(C)c(-n4nnc5cccnc54)c3)CC2)cc1` [Compound 3BI] cannot be ordered by IC50: over 20 µM for the first, over 20 µM for the second.

`Cc1cc(C(=O)NCCCN2CCN(C3CCCCC3)CC2)ccc1-n1nnc2cccnc21` [Compound 3AU] and `Cc1c(C(=O)NCCCN2CCN(C3CCCCC3)CC2)cccc1-n1nnc2cccnc21` [Compound 3CH] cannot be ordered by IC50: over 20 µM for the first, over 20 µM for the second.

First: O=C(c1cccc(-n2nnc3cccnc32)c1)N1CCCC1 [Compound 3AV]
Second: O=C(c1cccc(-n2nnc3cccnc32)c1)N1CCN(C2CCCCC2)CC1 [Compound 3R]
The IC50 of the first is higher: over 20 µM for the first, 1 to 20 µM for the second.

`CCCCN(CC)C(=O)c1cccc(-n2nnc3cccnc32)c1` [Compound 3AW] and `CCCCN(C)C(=O)c1cccc(-n2nnc3cccnc32)c1` [Compound 3AX] cannot be ordered by IC50: over 20 µM for the first, over 20 µM for the second.

First: O=C(NC1CCN(Cc2ccccc2)CC1)c1cccc(-n2nnc3cccnc32)c1 [Compound 3AY]
Second: Cc1cc(C(=O)NC2CCN(Cc3ccccc3)CC2)ccc1-n1nnc2cccnc21 [Compound 3N]
The IC50 of the first is higher: over 20 µM for the first, 1 to 20 µM for the second.

First: COc1ccc(N2CCN(C(=O)c3cccc(-n4nnc5cccnc54)c3)CC2)cc1 [Compound 3AZ]
Second: O=C(c1cccc(-n2nnc3cccnc32)c1)N1CCN(c2ccccc2)CC1 [Compound 3P]
The IC50 of the first is higher: over 20 µM for the first, 1 to 20 µM for the second. The second is the more potent here.

`Cc1cccc(N2CCN(C(=O)c3ccc(C)c(-n4nnc5cccnc54)c3)CC2C)c1` (stereo not shown) [Compound 3A] and `Cc1cccc(N2CCN(C(=O)c3cccc(-n4nnc5cccnc54)c3C)CC2C)c1` (stereo not shown) [Compound 3] cannot be ordered by IC50: under 1 µM for the first, under 1 µM for the second.

`O=C(NCCCN1CCN(Cc2ccccc2)CC1)c1cccc(-n2nnc3cccnc32)c1` [Compound 3BA] and `Cc1c(C(=O)NCCCN2CCN(Cc3ccccc3)CC2)cccc1-n1nnc2cccnc21` [Compound 3CD] cannot be ordered by IC50: over 20 µM for the first, over 20 µM for the second.

`Cc1ccc(C(=O)NCc2ccccc2)cc1-n1nnc2cccnc21` [Compound 3BB] and `Cc1ccc(C(=O)N(C)Cc2ccccc2)cc1-n1nnc2cccnc21` [Compound 3BC] cannot be ordered by IC50: over 20 µM for the first, over 20 µM for the second.

`Cc1ccc(CNC(=O)c2ccc(C)c(-n3nnc4cccnc43)c2)cc1` [Compound 3BD] and `Cc1ccc(C(=O)NCc2ccc(N(C)C)cc2)cc1-n1nnc2cccnc21` [Compound 3BM] cannot be ordered by IC50: over 20 µM for the first, over 20 µM for the second.

`Cc1ccc(C(=O)N2CCN(C3CCCCC3)CC2)cc1-n1nnc2cccnc21` [Compound 3BE] and `Cc1c(C(=O)N2CCN(C3CCCCC3)CC2)cccc1-n1nnc2cccnc21` [Compound 3BP] cannot be ordered by IC50: over 20 µM for the first, over 20 µM for the second.

`Cc1cccc(CNC(=O)c2ccc(C)c(-n3nnc4cccnc43)c2)c1` [Compound 3BF] and `Cc1cccc(CNC(=O)c2cccc(-n3nnc4cccnc43)c2C)c1` [Compound 3BQ] cannot be ordered by IC50: over 20 µM for the first, over 20 µM for the second.

`Cc1ccc(C(=O)NC2CCN(Cc3ccccc3)CC2)cc1-n1nnc2cccnc21` [Compound 3BH] and `Cc1c(C(=O)NC2CCN(Cc3ccccc3)CC2)cccc1-n1nnc2cccnc21` [Compound 3BU] cannot be ordered by IC50: over 20 µM for the first, over 20 µM for the second.

`Cc1ccc(C(=O)NCCCN(C)Cc2ccccc2)cc1-n1nnc2cccnc21` [Compound 3BJ] and `Cc1c(C(=O)NCCCN(C)Cc2ccccc2)cccc1-n1nnc2cccnc21` [Compound 3BX] cannot be ordered by IC50: over 20 µM for the first, over 20 µM for the second.

First: Cc1ccc(C(=O)NCCCN2CCN(c3cccc(Cl)c3)CC2)cc1-n1nnc2cccnc21 [Compound 3BK]
Second: Cc1ccc(C(=O)N2CCN(c3cccc(Cl)c3)CC2)cc1-n1nnc2cccnc21 [Compound 3W]
The IC50 of the first is higher: over 20 µM for the first, 1 to 20 µM for the second.

Compared with `Cc1ccc(C(=O)NCCCN2CCc3ccccc3C2)cc1-n1nnc2cccnc21` [Compound 3BL], `Cc1ccc(C)c(N2CCN(CCCNC(=O)c3ccc(-n4nnc5cccnc54)cc3)CC2)c1` [Compound 3K] is lower in IC50: over 20 µM for the first, 1 to 20 µM for the second.

`Cc1c(C(=O)NCc2ccccc2)cccc1-n1nnc2cccnc21` [Compound 3BN] and `Cc1ccccc1CNC(=O)c1cccc(-n2nnc3cccnc32)c1C` [Compound 3CI] cannot be ordered by IC50: over 20 µM for the first, over 20 µM for the second.

`Cc1c(C(=O)NC2CCCCCC2)cccc1-n1nnc2cccnc21` [Compound 3BO] and `Cc1c(C(=O)NCCN(C)C2CCCCC2)cccc1-n1nnc2cccnc21` [Compound 3CF] cannot be ordered by IC50: over 20 µM for the first, over 20 µM for the second.

`Cc1c(C(=O)N2CCC(N3CCCCC3)CC2)cccc1-n1nnc2cccnc21` [Compound 3BR] and `Cc1c(C(=O)NCCCN2CCC(N3CCCCC3)CC2)cccc1-n1nnc2cccnc21` [Compound 3CE] cannot be ordered by IC50: over 20 µM for the first, over 20 µM for the second.

`CCCCN(C)C(=O)c1cccc(-n2nnc3cccnc32)c1C` [Compound 3BS] and `Cc1c(C(=O)NCc2ccc(N(C)C)cc2)cccc1-n1nnc2cccnc21` [Compound 3CG] cannot be ordered by IC50: over 20 µM for the first, over 20 µM for the second.

`Cc1c(C(=O)NCC(C)c2ccccc2)cccc1-n1nnc2cccnc21` (stereo not shown) [Compound 3BT] and `Cc1c(C(=O)NCCC(C)N2CCCC2)cccc1-n1nnc2cccnc21` (stereo not shown) [Compound 3CJ] cannot be ordered by IC50: over 20 µM for the first, over 20 µM for the second.

`Cc1c(C(=O)N2CCN(Cc3ccc4c(c3)OCO4)CC2)cccc1-n1nnc2cccnc21` [Compound 3BV] and `Cc1c(C(=O)N2CCN(c3ccccc3F)CC2)cccc1-n1nnc2cccnc21` [Compound 3BW] cannot be ordered by IC50: over 20 µM for the first, over 20 µM for the second.

`Cc1c(C(=O)NCCN2CCCC2)cccc1-n1nnc2cccnc21` [Compound 3BY] and `Cc1c(C(=O)NCCCN2CCCC(C)C2)cccc1-n1nnc2cccnc21` (stereo not shown) [Compound 3CB] cannot be ordered by IC50: over 20 µM for the first, over 20 µM for the second.

`COc1ccc(N2CCN(CCCNC(=O)c3cccc(-n4nnc5cccnc54)c3C)CC2)cc1` [Compound 3BZ] and `Cc1c(C(=O)NCCCN2CCN(c3ccc(F)cc3)CC2)cccc1-n1nnc2cccnc21` [Compound 3CC] cannot be ordered by IC50: over 20 µM for the first, over 20 µM for the second.

`Cc1c(C(=O)N2CCN(c3cccc(Cl)c3)CC2)cccc1-n1nnc2cccnc21` [Compound 3B] and `COc1cccc(N2CCN(C(=O)c3cccc(-n4nnc5cccnc54)c3C)CC2)c1` [Compound 3F] cannot be ordered by IC50: under 1 µM for the first, under 1 µM for the second.

First: Cc1ccc(CN2CCC(CNC(=O)c3cccc(-n4nnc5cccnc54)c3C)CC2)cc1 [Compound 3CA]
Second: Cc1ccc(CN2CCC(CNC(=O)c3cccc(-n4nnc5cccnc54)c3)CC2)cc1 [Compound 3T]
The IC50 of the first is higher: over 20 µM for the first, 1 to 20 µM for the second.

First: Cc1c(C(=O)NC(C)C(=O)N2CCCCC2)cccc1-n1nnc2cccnc21 (stereo not shown) [Compound 3CK]
Second: Cc1cc(C(=O)Nc2cccc(CN3CCCC3)c2)ccc1-n1nnc2cccnc21 [Compound 3O]
The IC50 of the first is higher: over 20 µM for the first, 1 to 20 µM for the second. The second is the more potent here.

`Cc1ccc(C)c(N2CCN(C(=O)c3cccc(-n4nnc5cccnc54)c3)CC2)c1` [Compound 3D] and `Cc1ccc(Cl)cc1N1CCN(C(=O)c2cccc(-n3nnc4cccnc43)c2)CC1` [Compound 3E] cannot be ordered by IC50: under 1 µM for the first, under 1 µM for the second.

`Cc1ccc(C)c(N2CCN(C(=O)c3ccc(-n4nnc5cccnc54)cc3)CC2)c1` [Compound 3G] and `Cc1ccc(Cl)cc1N1CCN(C(=O)c2ccc(-n3nnc4cccnc43)cc2)CC1` [Compound 3H] fall in the same range of IC50: 1 to 20 µM for the first, 1 to 20 µM for the second.

`Cc1cccc(N2CCN(C(=O)c3ccc(-n4nnc5cccnc54)cc3)CC2C)c1` (stereo not shown) [Compound 3I] and `Cc1cccc(N2CCN(C(=O)c3cccc(-n4nnc5cccnc54)c3)CC2C)c1` (stereo not shown) [Compound 3S] fall in the same range of IC50: 1 to 20 µM for the first, 1 to 20 µM for the second.

`O=C(c1ccc(-n2nnc3cccnc32)cc1)N1CCN(c2ccccc2F)CC1` [Compound 3J] and `Cc1cc(C(=O)N2CCN(c3ccccc3)CC2)ccc1-n1nnc2cccnc21` [Compound 3L] fall in the same range of IC50: 1 to 20 µM for the first, 1 to 20 µM for the second.

`O=C(c1cccc(-n2nnc3cccnc32)c1)N1CCN(c2cccc(Cl)c2)CC1` [Compound 3Q] and `Cc1ccc(C(=O)N2CCN(c3ccccc3)CC2)cc1-n1nnc2cccnc21` [Compound 3V] fall in the same range of IC50: 1 to 20 µM for the first, 1 to 20 µM for the second.

`COc1cccc(N2CCN(C(=O)c3ccc(C)c(-n4nnc5cccnc54)c3)CC2)c1` [Compound 3U] and `Cc1ccc(C)c(N2CCN(C(=O)c3ccc(C)c(-n4nnc5cccnc54)c3)CC2)c1` [Compound 3X] fall in the same range of IC50: 1 to 20 µM for the first, 1 to 20 µM for the second.

`Cc1ccc(Cl)cc1N1CCN(C(=O)c2ccc(C)c(-n3nnc4cccnc43)c2)CC1` [Compound 3Y] and `Cc1ccc(C(=O)N2CCC(Cc3ccccc3)CC2)cc1-n1nnc2cccnc21` [Compound 3Z] fall in the same range of IC50: 1 to 20 µM for the first, 1 to 20 µM for the second.

Same assay, conditions: Homo sapiens; scored relative to parent compound 4; 72 hours; read-out: Activity Score, inhibition of FOXC2-expressing HMLER cells by Formula IV compounds

`Cc1ccc(C)c(N2CCN(S(=O)(=O)c3c(C)nn(-c4ccc(F)cc4)c3C)CC2)c1` [Compound 4AA] and `Cc1ccc(-n2nc(C)c(S(=O)(=O)N3CCN(c4cccc(C)c4C)CC3)c2C)cc1` [Compound 4AE] cannot be ordered by IC50: over 20 µM for the first, over 20 µM for the second.

`Cc1nn(-c2ccc(F)cc2)c(C)c1S(=O)(=O)N1CCN(c2ccccn2)CC1` [Compound 4AB] and `Cc1ccc(-n2nc(C)c(S(=O)(=O)N3CCN(c4ccccn4)CC3)c2C)cc1` [Compound 4AF] cannot be ordered by IC50: over 20 µM for the first, over 20 µM for the second.

`Cc1nn(-c2ccc(F)cc2)c(C)c1S(=O)(=O)N1CCN(c2ccc(F)cc2)CC1` [Compound 4AC] and `Cc1ccc(-n2nc(C)c(S(=O)(=O)N3CCN(c4ccc(Cl)cc4)CC3)c2C)cc1` [Compound 4AD] cannot be ordered by IC50: over 20 µM for the first, over 20 µM for the second.
